From patent publication US20100016285A1, “HETEROCYCLIDENE-N-(ARYL) ACETAMIDE DERIVATIVE” (MOCHIDA PHARMACEUTICAL CO., LTD., priority 2007, published 2010)
Where two headings read alike, the source gives them in different places.

Key:
human TRPV1 = molecular target: T1, human TRPV1 (Homo sapiens, UniProt Q8NER1); experiment: Capsaicin (10 nmol/L)-induced Ca influx in transformed CHO cells, FDSS-6000 (b-2), IC50; assay type: cell-based
T1 construct: expressed in transfected cells; host or cells: CHO-K1 cells, pCAGGS vector, clones selected by limiting dilution
Description: (1) Measurement of Capsaicin-Induced Ca Influx in a Transformed CHO Cell Line Expressing Human TRPV1
(a) Establishment of a Transformed CHO Cell Line Expressing Human and Rat TRPV1
Human and rat vanilloid receptor 1 (hTRPV1 and rTRPV1) cDNA was cloned from human brain and rat dorsal root ganglion, respectively. The cloned TRPV1 cDNA was incorporated in a pCAGGS vector. The vector was introduced to a CHO-K1 cell line, thus performing transformation. Clones obtained by limiting dilution were stimulated with capsaicin. Clones with a high responsiveness were selected using an increase in the Ca concentration as an indicator. The selected clones were used for the following experiment.
(b-2) Measurement of Ca Influx using FDSS-6000
The transformed CHO cells expressing human or rat TRPV1 were inoculated in a 96-well plate (with black walls and transparent bottoms, manufactured by Greiner) at a density of 40,000 cells per well. The cells were cultured at 37° C. in 5% CO2 atmosphere for one night. A loading solution of FLIPR Calcium 3 assay kit (manufactured by Molecular Devices Corporation) containing 2.5 mmol/L of probenecid was then added to each of the wells in the same amount as the culture medium, and the cells were cultured at 37° C. for 60 minutes. For three minutes after the cells were stimulated with capsaicin (10 nmol/L), the change of the intracellular Ca concentration was measured using FDSS-6000 (λex: 480 nm, λem: 540 nm, manufactured by Hamamatsu Photonics K.K.). The integrated values of the increase rate of the intracellular Ca concentration were calculated for a group treated with the compounds of the present invention and a group treated with a vehicle. Then, the concentration of the compound of the present invention was calculated that inhibits 50% of the intracellular Ca concentration increase induced by capsaicin (IC50). Using this value as the index, inhibitory effects of the test compounds were compared. In addition, when IC50 value in human TRPV1 was less than 100 nmol/L, it was shown as A in Table 1C.

[1] = cited from earlier work; for Change of rat rectal temperature: reference information (Non-Patent Document 4 or 5); for Change in rectal temperature in rats: from published information (Non-Patent Document 4 or 5)
[2] = Effects on rectal temperature (8-2), administration into tail veins of rats; assay type: in vivo, rat; settings: Intravenous, single dose of 1 mg/kg; 15, 30 and 60 minutes; maximum absolute difference vs vehicle
Experimental: (§1) (8-2) Effects on Rectal Temperature
A test compound was administered to rats into tail veins at single dose of 1 mg/kg. Then rectal temperature was measured 15, 30 and 60 minutes after administration.
(§2) Differences of the mean value between a group treated with test substance and a vehicle-treated group were calculated at all measuring points and, based on the maximum absolute value of differences, changes in rectal temperature were divided into the following three categories:
(§3) −: the maximum value was less than 0.5 degree Celsius +: the maximum value was more than 0.5 degree but less than 1.0 degree Celsius ++: the maximum value was more than 1.0 degree Celsius

[3] = Effects on rectal temperature (8-1), oral administration to rats; assay type: in vivo, rat; settings: oral single doses of 3, 10 and 30 mg/kg; 30, 60 and 120 minutes; maximum absolute difference vs vehicle
Experimental: (8-1) Effects on Rectal Temperature
A test compound was orally administered to rats at single doses of 3, 10 and 30 mg/kg. Then rectal temperature was measured 30, 60 and 120 minutes after administration.
as §2, §3

[4] = Effects on rectal temperature (8-2), oral administration to rats; assay type: in vivo, rat; settings: single dose of 10 mg/kg, 30, 60 and 120 minutes, maximum absolute difference vs vehicle
Experimental: as §1
A test compound was orally administered to rats at single dose of 10 mg/kg. Then rectal temperature was measured 30, 60 and 120 minutes after administration.
as §2, §3

T1 sequence (Q8NER1 whole entry): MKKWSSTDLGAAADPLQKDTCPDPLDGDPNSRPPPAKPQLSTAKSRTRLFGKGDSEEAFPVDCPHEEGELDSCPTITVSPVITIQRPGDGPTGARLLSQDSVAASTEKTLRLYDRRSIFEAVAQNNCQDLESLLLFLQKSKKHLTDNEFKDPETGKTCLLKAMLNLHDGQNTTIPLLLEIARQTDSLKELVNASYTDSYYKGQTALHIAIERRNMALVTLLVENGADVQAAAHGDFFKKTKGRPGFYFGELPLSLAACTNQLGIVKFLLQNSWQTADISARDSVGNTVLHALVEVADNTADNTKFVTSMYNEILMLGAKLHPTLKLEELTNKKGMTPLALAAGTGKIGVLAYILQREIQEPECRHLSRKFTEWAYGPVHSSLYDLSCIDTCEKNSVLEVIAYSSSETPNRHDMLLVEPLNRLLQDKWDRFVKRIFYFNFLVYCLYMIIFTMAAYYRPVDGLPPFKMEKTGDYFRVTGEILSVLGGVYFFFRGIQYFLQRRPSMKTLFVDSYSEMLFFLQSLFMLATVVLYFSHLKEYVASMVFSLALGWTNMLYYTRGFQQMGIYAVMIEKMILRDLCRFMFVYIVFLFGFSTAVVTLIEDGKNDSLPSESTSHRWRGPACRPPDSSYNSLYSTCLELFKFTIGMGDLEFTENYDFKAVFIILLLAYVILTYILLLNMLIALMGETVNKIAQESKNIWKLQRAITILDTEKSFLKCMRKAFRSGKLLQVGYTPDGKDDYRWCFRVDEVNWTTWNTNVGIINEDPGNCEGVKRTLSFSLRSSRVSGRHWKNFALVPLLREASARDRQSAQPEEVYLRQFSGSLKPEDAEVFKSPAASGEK

`CN1C(=O)NCc2c(NC(=O)/C=C3\NC(C)(C)Oc4cc(C(F)(F)F)ccc43)cccc21` [Example 313, (Z)-2-(2,3-dihydro-2,2-dimethyl-7-trifluoromethyl-4H-1,3-benzoxazin-4-ylidene)-N-(3,4-dihydro-1-methyl-2(1H)-quinazolinone-5-yl)acetamide] showed an IC50 (human TRPV1) of less than 100 nM.

Work on `CCN1C(=O)NCc2c(NC(=O)/C=C3\CC4(CCOCC4)Oc4cc(C(F)(F)F)ccc43)cccc21` [Example 312, (E)-2-(7-trifluoromethyl-spiro[chroman-2,4′-tetrahydropyran]-4-ylidene)-N-(3,4-dihydro-1-ethyl-2(1H)-quinazolinone-5-yl)acetamide] yielded an IC50 (human TRPV1) of less than 100 nM.

In the case of `CCN1C(=O)NCc2c(NC(=O)/C=C3\CCCOc4cc(C(F)(F)F)ccc43)cccc21` [Example 306, (E)-2-(3,4-dihydro-B-trifluoromethyl-1-benzoxepin-5(2H)-ylidene)-N-(3,4-dihydro-1-ethyl-2(1H)-quinazolinone-5-yl)acetamide], the IC50 (human TRPV1) is reported as less than 100 nM.

For `CCN1C(=O)NCc2c(NC(=O)/C=C3\CCOCc4cc(C(F)(F)F)ccc43)cccc21` [Example 307, (E)-2-(3,4-dihydro-8-trifluoromethyl-2-benzoxepin-5(1H)-ylidene)-N-(3,4-dihydro-1-ethyl-2(1H)-quinazolinone-5-yl)acetamide], the IC50 (human TRPV1) was less than 100 nM.

In the case of `CCN1C(=O)NCc2c(NC(=O)/C=C3\CC(CC)(CC)Oc4cc(C(F)(F)F)ccc43)cccc21` [Example 310, (E)-2-(2,2-diethyl-7-trifluoromethylchroman-4-ylidene)-N-(3,4-dihydro-1-ethyl-2(1H)-quinazolinone-5-yl)acetamide], the IC50 (human TRPV1) is reported as less than 100 nM.

For `CCN1C(=O)NCc2c(NC(=O)/C=C3\CCOc4cc(C(F)(F)F)ccc43)cccc21` [Example 308, (E)-2-(7-trifluoromethylchroman-4-ylidene)-N-(3,4-dihydro-1-ethyl-2(1H)-quinazolinone-5-yl)acetamide], the IC50 (human TRPV1) was less than 100 nM.

In the case of `O=C(Nc1ccc(C(F)(F)F)cn1)N1CCN(c2ncccc2C(F)(F)F)CC1` [Compound A, 4-(3-trifluoromethylpyridine-2-yl)-N-(5-trifuluoromethylpiridine-2-yl)-1-piperadinecarboxamide], the “Change of rat rectal temperature” value ([1]; Oral) is given as “Increase^1)” and the “Change in rectal temperature in rats” value [1] is given as “increased^1)”.

With `CN1C(=O)NCc2c(NC(=O)/C=C3\CC(C)(C)Oc4cc(C(F)(F)F)ccc43)cccc21` [Example 305, (E)-2-(2,2-dimethyl-7-trifluoromethylchroman-4-ylidene)-N-(3,4-dihydro-1-methyl-2(1H)-quinazolinone-5-yl)acetamide] the IC50 (human TRPV1) was less than 100 nM and the “Change of rat rectal temperature” value [2] was “− (the maximum value was less than 0.5 degree Celsius)”.

`CN1C(=O)NCc2c(NC(=O)/C=C3\CCOc4cc(C(F)(F)F)ccc43)cccc21` [Example 304, (E)-2-(7-trifluoromethylchroman-4-ylidene)-N-(3,4-dihydro-1-methyl-2(1H)-quinazolinone-5-yl)acetamide] showed an IC50 (human TRPV1) of less than 100 nM.

In the case of `CN1C(=O)NCc2c(NC(=O)/C=C3\CCCOc4cc(C(F)(F)F)ccc43)cccc21` [Example 302, (E)-2-(3,4-dihydro-8-trifluoromethyl-1-benzoxepin-5(2H)-ylidene)-N-(3,4-dihydro-1-methyl-2(1H)-quinazolinone-5-yl)acetamide], the IC50 (human TRPV1) is reported as less than 100 nM.

For `O=C(/C=C1\CCCOc2cc(C(F)(F)F)ccc21)Nc1cccc2c1CC(O)CN2` (stereo not drawn) [Compound D, (E)-2-(8-trifluoromethyl-3,4-dihydrobenzo[b]oxepin-5(2H)-ylidene)-N-(3-hydroxy-1,2,3,4-tetrahydroquinolin-5-yl)acetamide, reference compound], the “Change of rat rectal temperature” value [2] was “+ (Increase) (the maximum value was more than 0.5 degree but less than 1.0 degree Celsius)” and the “Change in rectal temperature in rats” value [3] was “++ (increased) (the maximum value was more than 1.0 degree Celsius)”.

`CN1C(=O)NCc2c(NC(=O)/C=C3\CCOCc4cc(C(F)(F)F)ccc43)cccc21` [Example 303, (E)-2-(3,4-dihydro-8-trifluoromethyl-2-benzoxepin-5(1H)-ylidene)-N-(3,4-dihydro-1-methyl-2(1H)-quinazolinone-5-yl)acetamide] gave an IC50 (human TRPV1) of less than 100 nM.

For `CCN1C(=O)NCc2c(NC(=O)/C=C3\CC(COC)(COC)Oc4cc(C(F)(F)F)ccc43)cccc21` [Example 311, (E)-2-(2,2-bis(methoxymethyl)-7-trifluoromethylchroman-4-ylidene)-N-(3,4-dihydro-1-ethyl-2(1H)-quinazolinone-5-yl)acetamide], the IC50 (human TRPV1) was less than 100 nM.

For `CC(C)(C)c1ccc(/C=C/C(=O)Nc2ccc3c(c2)OCCO3)cc1` [Compound B, (E)-3-(4-t-butylphenyl)-N-(2,3-dihydrobenzo[b][1,4]dioxine-6-yl)acrylamide], the “Change of rat rectal temperature” value ([1]; Intraperitoneal) is given as “Increase^1)” and the “Change in rectal temperature in rats” value [1] is given as “Increased^1)”.

For `CC(=O)Nc1nc2c(Oc3cc(-c4ccc(C(F)(F)F)cc4)ncn3)cccc2s1` [Compound C, N-(4-[6-(4-trifluoromethyl-phenyl)-pyrimidin-4-yloxy]-benzothiazol-2-yl)-acetamide, reference compound], the “Change in rectal temperature in rats” value [3] was “++ (increased) (the maximum value was more than 1.0 degree Celsius)” and the “Change of rat rectal temperature” value [4] was “++ (Increase) (the maximum value was more than 1.0 degree Celsius)”.

For `CCN1C(=O)NCc2c(NC(=O)/C=C3\CC(C)(C)Oc4cc(C(F)(F)F)ccc43)cccc21` [Example 309, (E)-2-(2,2-dimethyl-7-trifluoromethylchroman-4-ylidene)-N-(3,4-dihydro-1-ethyl-2(1H)-quinazolinone-5-yl)acetamide], the IC50 (human TRPV1) was less than 100 nM.
